Measured values as given in patent publication US20260008811A1, “BIOACTIVE PEPTIDES AND COMPOSITIONS COMPRISING THEM” (ESPIKEM S.R.L., priority 2019, published 2026).
Non-standard residues stand in square brackets, D forms with d.

Tests used:
[1] = test system: Type I procollagen; test: Western blot of type I procollagen / soluble type I collagen in fibroblast cultures after 72 hours of treatment; format: cell-based, human; settings: fibroblasts, peptide 20 mM, no FBS, compared with TGF-β1, SA1III, Peptide 1, Peptide 2 (FIG. 1)
Description: Neonatal human dermal fibroblasts (NHDF) have been obtained from Lonza. Cultures of adult dermal fibroblasts have been prepared from cutaneous skin biopsies of healthy donors having different ages, as described in Pani et al. J. Alzheimer's Dis. (2009) 18:829-41, C6 ([…]), C3 (person) and C12 (person). A written informed consent to use these dermal cells was obtained from all the donor subjects involved, according to the Guidelines indicated by the Ethics Committee of the Careggi University Hospital (Florence, Italy) and by the Helsinki Declaration of 1975, as reviewed in the 1983. All cell cultures have been subjected to a similar number of steps, from 6 to 9, at the beginning of the experiments, and were preserved in the modified Dulbecco Eagle culture medium (DMEM, Lonza) added with FBS 10% (Gibco), 100 units/ml of penicillin G, 0.05 mg/ml of streptomycin and glutamine 2 mM (PAN-Biotech GmbH), at 37° C. in a humidified incubator containing 5% of CO2.
The cells were seeded in 12-wells plates (30000 cells per well) and treated the day after with the peptide AAT11RI (20 mM). […]
All treatments have been carried out in the absence of FBS to avoid interferences in the electrophoretic migration. […] The protein content in the lysates was measured using the Bio-Rad DC protein assay kit. […]

[2] = test system: extracellular collagen; settings: fibroblasts obtained from subjects of various ages; cited from earlier work

| Substance | ability to increase the concentration of procollagen in vitro [1] | levels of extracellular collagen [2] |
| --- | --- | --- |
| Ac-DAsn-DVal-DVal-DLys-NH2 (Ac-[dN][dV][dV][dK]-NH2) [AAT11RI] | surprisingly higher than all the other products tested |  |
| SA1-III: C-terminal peptide fragment 409-418 of the serpin A1 molecule, positive control (MGKVVNPTQK) |  | increased levels of extracellular collagen |
